Measurements as given in ChEMBL document CHEMBL1201862, “PubChem BioAssay data set” (2004).
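Interpolation was linear, between the two tested concentrations surrounding the appropriate level; five concentrations were tested over 48 hours in 96-well plates. Abbreviation: GI50, concentration required for 50% inhibition of growth.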 Activity calls are given as the source filed them. No stated cut-off is given here; in the data, active = GI50 up to about 1.1 µM and inactive = higher.

What was measured:
Test in all cases: NCI anticancer screen, dose series, 48 h
786-0 = system: 786-0
A498 = system: A498
A549 = system: A549
ACHN = system: ACHN
BT-549 = system: BT-549
CAKI-1 = system: CAKI-1
CCRF-CEM = system: CCRF-CEM
COLO 205 = system: COLO 205
DU-145 = system: DU-145
EKVX = system: EKVX
HCC 2998 = system: HCC 2998
HCT-116 = system: HCT-116
HCT-15 = system: HCT-15
HL-60 = system: HL-60
HOP-62 = system: HOP-62
HOP-92 = system: HOP-92
HT-29 = system: HT-29
Hs-578T = system: Hs-578T
IGROV-1 = system: IGROV-1
K562 = system: K562
KM12 = system: KM12
LOX IMVI = system: LOX IMVI
MCF7 = system: MCF7
MDA-MB-231 = system: MDA-MB-231
MDA-MB-435 = system: MDA-MB-435
MDA-N = system: MDA-N
MOLT-4 = system: MOLT-4
Malme-3M = system: Malme-3M
NCI-H226 = system: NCI-H226
NCI-H23 = system: NCI-H23
NCI-H460 = system: NCI-H460
NCI-H522 = system: NCI-H522
NCI/ADR-RES = system: NCI/ADR-RES
OVCAR-3 = system: OVCAR-3
OVCAR-4 = system: OVCAR-4
OVCAR-5 = system: OVCAR-5
OVCAR-8 = system: OVCAR-8
PC-3 = system: PC-3
RPMI-8226 = system: RPMI-8226
RXF 393 = system: RXF 393
SF-268 = system: SF-268
SF-295 = system: SF-295
SF-539 = system: SF-539
SK-MEL-28 = system: SK-MEL-28
SK-MEL-5 = system: SK-MEL-5
SN12C = system: SN12C
SNB-19 = system: SNB-19
SNB-75 = system: SNB-75
SR = system: SR
SW-620 = system: SW-620
TK-10 = system: TK-10
U-251 = system: U-251
UACC-257 = system: UACC-257
UO-31 = system: UO-31
M14 = system: M14
SK-MEL-2 = system: SK-MEL-2
SK-OV-3 = system: SK-OV-3
T47D = system: T47D
UACC-62 = system: UACC-62

Structure (SMILES): Cn1c(=O)c(-c2ccccc2)c(O)c2ccccc21
- GI50 (786-0): > 100 µM (inactive)
- GI50 (A498): > 100 µM (inactive)
- GI50 (A549): > 100 µM (inactive)
- GI50 (ACHN): > 100 µM (inactive)
- GI50 (BT-549): > 100 µM (inactive)
- GI50 (CAKI-1): > 100 µM (inactive)
- GI50 (CCRF-CEM): > 100 µM (inactive)
- GI50 (COLO 205): > 100 µM (inactive)
- GI50 (DU-145): > 100 µM (inactive)
- GI50 (EKVX): > 100 µM (inactive)
- GI50 (HCC 2998): > 100 µM (inactive)
- GI50 (HCT-116): > 100 µM (inactive)
- GI50 (HCT-15): > 100 µM
- GI50 (HL-60): > 100 µM (inactive)
- GI50 (HOP-62): > 100 µM (inactive)
- GI50 (HOP-92): > 100 µM (inactive)
- GI50 (HT-29): > 100 µM (inactive)
- GI50 (Hs-578T): 66.4 µM (inactive)
- GI50 (IGROV-1): > 100 µM (inactive)
- GI50 (K562): > 100 µM (inactive)
- GI50 (KM12): > 100 µM (inactive)
- GI50 (LOX IMVI): > 100 µM (inactive)
- GI50 (MCF7): > 100 µM (inactive)
- GI50 (MDA-MB-231): > 100 µM (inactive)
- GI50 (MDA-MB-435): > 100 µM (inactive)
- GI50 (MDA-N): > 100 µM (inactive)
- GI50 (MOLT-4): > 100 µM (inactive)
- GI50 (Malme-3M): > 100 µM (inactive)
- GI50 (NCI-H226): > 100 µM (inactive)
- GI50 (NCI-H23): > 100 µM (inactive)
- GI50 (NCI-H460): > 100 µM (inactive)
- GI50 (NCI-H522): > 100 µM (inactive)
- GI50 (NCI/ADR-RES): > 100 µM (inactive)
- GI50 (OVCAR-3): > 100 µM (inactive)
- GI50 (OVCAR-4): > 100 µM (inactive)
- GI50 (OVCAR-5): > 100 µM (inactive)
- GI50 (OVCAR-8): > 100 µM (inactive)
- GI50 (PC-3): > 100 µM (inactive)
- GI50 (RPMI-8226): > 100 µM (inactive)
- GI50 (RXF 393): > 100 µM (inactive)
- GI50 (SF-268): > 100 µM (inactive)
- GI50 (SF-295): > 100 µM (inactive)
- GI50 (SF-539): > 100 µM (inactive)
- GI50 (SK-MEL-28): > 100 µM (inactive)
- GI50 (SK-MEL-5): > 100 µM (inactive)
- GI50 (SN12C): > 100 µM (inactive)
- GI50 (SNB-19): > 100 µM (inactive)
- GI50 (SNB-75): 0.92 µM (active)
- GI50 (SR): 42.5 µM (inactive)
- GI50 (SW-620): > 100 µM (inactive)
- GI50 (TK-10): > 100 µM (inactive)
- GI50 (U-251): > 100 µM (inactive)
- GI50 (UACC-257): > 100 µM (inactive)
- GI50 (UO-31): > 100 µM (inactive)

Structure (SMILES): O=C(N/N=C\c1ccc([N+](=O)[O-])cc1)Nc1ccccc1
- GI50 (A498): > 100 µM (inactive)
- GI50 (BT-549): > 100 µM (inactive)
- GI50 (CAKI-1): > 100 µM (inactive)
- GI50 (CCRF-CEM): > 100 µM (inactive)
- GI50 (COLO 205): > 100 µM (inactive)
- GI50 (DU-145): > 100 µM (inactive)
- GI50 (HCT-116): > 100 µM (inactive)
- GI50 (HCT-15): > 100 µM
- GI50 (HL-60): > 100 µM (inactive)
- GI50 (HOP-62): > 100 µM (inactive)
- GI50 (HOP-92): > 100 µM (inactive)
- GI50 (HT-29): > 100 µM (inactive)
- GI50 (Hs-578T): > 100 µM (inactive)
- GI50 (IGROV-1): > 100 µM (inactive)
- GI50 (K562): > 100 µM (inactive)
- GI50 (KM12): > 100 µM (inactive)
- GI50 (LOX IMVI): > 10 µM (inactive)
- GI50 (M14): > 100 µM (inactive)
- GI50 (MCF7): > 100 µM (inactive)
- GI50 (MDA-MB-435): > 100 µM (inactive)
- GI50 (MDA-N): > 100 µM (inactive)
- GI50 (MOLT-4): > 100 µM (inactive)
- GI50 (Malme-3M): > 100 µM (inactive)
- GI50 (NCI-H226): > 100 µM (inactive)
- GI50 (NCI-H23): > 100 µM (inactive)
- GI50 (NCI-H460): > 100 µM (inactive)
- GI50 (NCI/ADR-RES): > 100 µM (inactive)
- GI50 (OVCAR-3): > 100 µM (inactive)
- GI50 (OVCAR-4): > 100 µM (inactive)
- GI50 (OVCAR-5): > 100 µM (inactive)
- GI50 (OVCAR-8): > 100 µM (inactive)
- GI50 (PC-3): > 100 µM (inactive)
- GI50 (RPMI-8226): > 100 µM (inactive)
- GI50 (RXF 393): > 100 µM (inactive)
- GI50 (SF-295): > 100 µM (inactive)
- GI50 (SK-MEL-28): > 100 µM (inactive)
- GI50 (SK-MEL-2): > 100 µM (inactive)
- GI50 (SK-MEL-5): > 100 µM (inactive)
- GI50 (SK-OV-3): > 100 µM (inactive)
- GI50 (SN12C): > 100 µM (inactive)
- GI50 (SNB-19): > 100 µM (inactive)
- GI50 (SNB-75): > 100 µM (inactive)
- GI50 (SR): > 100 µM (inactive)
- GI50 (SW-620): > 100 µM (inactive)
- GI50 (T47D): > 100 µM (inactive)
- GI50 (TK-10): > 100 µM (inactive)
- GI50 (U-251): > 100 µM (inactive)
- GI50 (UACC-257): > 100 µM (inactive)
- GI50 (UACC-62): > 100 µM (inactive)
- GI50 (UO-31): > 100 µM (inactive)
